Assay type in all cases: cell-based
Experiment [1] has as its target T1, von Hippel-Lindau disease tumor suppressor/Son of sevenless homolog 1 (Homo sapiens, UniProt Q07889+P40337). In words: Protac activity at VHL/SOS1 in human K562 cells assessed as SOS1 degradation at 1 uM by Western blotting analysis relative to control.
Experiment [2] has as its target T1, von Hippel-Lindau disease tumor suppressor/Son of sevenless homolog 1. The experiment in a line: Protac activity at VHL/SOS1 in human PANC-1 cells assessed as SOS1 degradation at 10 uM by Western blotting analysis relative to control. (In general: Immunoblotting shows a protein as a band on a membrane.)
Experiment [3] shares this target. In words: Protac activity at VHL/SOS1 in human PANC-1 cells assessed as SOS1 degradation at 1 uM by Western blotting analysis relative to control.
Experiment [4] has the same target. In words: Protac activity at VHL/SOS1 in human K562 cells assessed as SOS1 degradation at 10 uM by Western blotting analysis relative to control.
Experiment [5] has as its target T2, Protein cereblon/Son of sevenless homolog 1 (Homo sapiens) (UniProt Q07889+Q96SW2). In words: Protac activity at CRBN/SOS1 in human K562 cells assessed as SOS1 degradation at 1 uM by Western blotting analysis relative to control.
The target of experiment [6] is T2, Protein cereblon/Son of sevenless homolog 1 (Homo sapiens). The experiment in a line: Protac activity at CRBN/SOS1 in human PANC-1 cells assessed as SOS1 degradation at 10 uM by Western blotting analysis relative to control.
Experiment [7] shares this target. The experiment in a line: Protac activity at CRBN/SOS1 in human K562 cells assessed as SOS1 degradation at 10 uM by Western blotting analysis relative to control.
Experiment [8] has the same target. The experiment in a line: Protac activity at CRBN/SOS1 in human PANC-1 cells assessed as SOS1 degradation at 1 uM by Western blotting analysis.

T1 sequence (P40337 whole entry, looked up): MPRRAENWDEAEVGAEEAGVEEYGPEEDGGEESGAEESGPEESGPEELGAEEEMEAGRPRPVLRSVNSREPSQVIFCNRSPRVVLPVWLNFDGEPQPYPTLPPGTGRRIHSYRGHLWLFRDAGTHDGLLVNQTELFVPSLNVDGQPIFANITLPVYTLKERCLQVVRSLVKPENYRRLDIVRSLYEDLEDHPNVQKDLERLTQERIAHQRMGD
T1 sequence (Q07889 whole entry, looked up): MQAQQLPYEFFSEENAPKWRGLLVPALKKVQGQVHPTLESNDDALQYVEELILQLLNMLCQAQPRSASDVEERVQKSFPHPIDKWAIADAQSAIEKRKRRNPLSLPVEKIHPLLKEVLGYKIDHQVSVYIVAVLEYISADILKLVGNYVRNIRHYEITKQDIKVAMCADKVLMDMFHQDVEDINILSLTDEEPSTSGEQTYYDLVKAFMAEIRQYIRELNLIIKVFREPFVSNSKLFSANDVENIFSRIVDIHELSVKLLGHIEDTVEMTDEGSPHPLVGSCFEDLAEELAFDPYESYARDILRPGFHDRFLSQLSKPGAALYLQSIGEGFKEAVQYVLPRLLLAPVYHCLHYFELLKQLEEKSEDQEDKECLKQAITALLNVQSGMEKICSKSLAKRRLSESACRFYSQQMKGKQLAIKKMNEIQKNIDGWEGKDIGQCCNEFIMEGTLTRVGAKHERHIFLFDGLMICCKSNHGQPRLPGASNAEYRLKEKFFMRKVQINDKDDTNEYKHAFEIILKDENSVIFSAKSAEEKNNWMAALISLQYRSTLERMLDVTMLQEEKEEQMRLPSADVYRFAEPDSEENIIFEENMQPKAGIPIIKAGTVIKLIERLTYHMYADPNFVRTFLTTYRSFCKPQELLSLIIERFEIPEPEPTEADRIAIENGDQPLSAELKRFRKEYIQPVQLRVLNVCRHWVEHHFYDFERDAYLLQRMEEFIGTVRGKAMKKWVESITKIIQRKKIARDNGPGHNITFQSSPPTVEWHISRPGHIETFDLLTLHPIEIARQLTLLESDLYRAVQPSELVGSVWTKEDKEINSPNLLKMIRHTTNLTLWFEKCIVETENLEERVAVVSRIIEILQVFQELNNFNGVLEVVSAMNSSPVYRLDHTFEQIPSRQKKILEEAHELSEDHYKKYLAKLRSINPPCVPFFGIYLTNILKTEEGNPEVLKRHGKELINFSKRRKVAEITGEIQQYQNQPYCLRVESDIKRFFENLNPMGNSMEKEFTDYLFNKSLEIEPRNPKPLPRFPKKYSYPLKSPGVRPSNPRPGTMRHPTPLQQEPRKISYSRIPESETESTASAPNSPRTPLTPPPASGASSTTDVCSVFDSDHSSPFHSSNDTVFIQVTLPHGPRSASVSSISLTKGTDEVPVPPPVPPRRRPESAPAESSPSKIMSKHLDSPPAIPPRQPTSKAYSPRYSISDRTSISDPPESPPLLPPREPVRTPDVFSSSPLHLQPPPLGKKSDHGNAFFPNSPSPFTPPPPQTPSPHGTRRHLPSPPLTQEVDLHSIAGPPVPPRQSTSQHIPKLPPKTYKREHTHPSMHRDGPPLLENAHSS
T2 sequence (Q07889 whole entry, looked up): as above
T2 sequence (Q96SW2 whole entry, looked up): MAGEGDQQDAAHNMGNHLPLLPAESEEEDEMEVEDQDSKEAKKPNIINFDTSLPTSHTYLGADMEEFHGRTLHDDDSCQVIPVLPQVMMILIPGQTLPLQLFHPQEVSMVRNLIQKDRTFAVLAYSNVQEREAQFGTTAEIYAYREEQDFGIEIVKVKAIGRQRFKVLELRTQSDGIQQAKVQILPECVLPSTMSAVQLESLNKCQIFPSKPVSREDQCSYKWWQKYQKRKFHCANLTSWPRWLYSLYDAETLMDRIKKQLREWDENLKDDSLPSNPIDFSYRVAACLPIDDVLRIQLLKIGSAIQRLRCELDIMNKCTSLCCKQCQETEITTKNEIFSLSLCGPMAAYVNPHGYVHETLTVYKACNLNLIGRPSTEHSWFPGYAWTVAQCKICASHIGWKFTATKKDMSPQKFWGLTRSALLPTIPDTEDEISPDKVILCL

As for `CNCc1ccccc1-c1csc([C@@H](C)Nc2nc(C)nc3cc(OC)c(C4=CCN(C(=O)CCCC(=O)N[C@H](C(=O)N5C[C@H](O)C[C@H]5C(=O)NCc5ccc(-c6scnc6C)cc5)C(C)(C)C)CC4)cc23)c1`, the Activity in experiment [1] is 2.3%; in experiment [2], 0%; in experiment [3], 8.4%; in experiment [4] it was 18.7%.

As to `COc1cc2nc(C)nc(N[C@H](C)c3cc(N)cc(C(F)(F)F)c3)c2cc1OCCCC(=O)N[C@H](C(=O)N1C[C@H](O)C[C@H]1C(=O)NCc1ccc(-c2scnc2C)cc1)C(C)(C)C`, the Activity in experiment [1], in experiment [2], in experiment [3] and in experiment [4] was 0% in each case.

On to `COc1cc2nc(C)nc(N[C@H](C)c3cc(-c4ccccc4CNCC4CCN(C(=O)CC(=O)N[C@H](C(=O)N5C[C@H](O)C[C@H]5C(=O)NCc5ccc(-c6scnc6C)cc5)C(C)(C)C)CC4)cs3)c2cc1OC`, for which the Activity worked out at 0% in experiment [1], 0% in experiment [2], 26% in experiment [3] and 0% in experiment [4].

With `CNCc1ccccc1-c1csc([C@@H](C)Nc2nc(C)nc3cc(OC)c(OCCCCC(=O)N[C@H](C(=O)N4C[C@H](O)C[C@H]4C(=O)NCc4ccc(-c5scnc5C)cc4)C(C)(C)C)cc23)c1`, the Activity is 27.5% in experiment [1], 0% in experiment [2], 8.8% in experiment [3] and 32.9% in experiment [4].

For the compound `CNCc1ccccc1-c1csc([C@@H](C)Nc2nc(C)nc3cc(OC)c(OCCCCCCC(=O)N[C@H](C(=O)N4C[C@H](O)C[C@H]4C(=O)NCc4ccc(-c5scnc5C)cc4)C(C)(C)C)cc23)c1`, the Activity in experiment [1] turned out to be 28.1%; in experiment [2], 0%; in experiment [3], 0%; in experiment [4], 21.8%.

As for `CNCc1ccccc1-c1csc([C@@H](C)Nc2nc(C)nc3cc(OC)c(OCCCCCCCC(=O)N[C@H](C(=O)N4C[C@H](O)C[C@H]4C(=O)NCc4ccc(-c5scnc5C)cc4)C(C)(C)C)cc23)c1`, the Activity came to 27% in experiment [1], 14.3% in experiment [2] and 0% in experiment [3].

For `COc1cc2nc(C)nc(N[C@H](C)c3cc(-c4ccccc4CNCCCCCCCNc4ccc5c(c4)C(=O)N(C4CCC(=O)NC4=O)C5=O)cs3)c2cc1OC` (some centres not stated), the Activity in experiment [5] turned out to be 35.4%; in experiment [6], 3.4%; in experiment [7] it was 72.1%; in experiment [8], 0%.

Take `COc1cc2nc(C)nc(N[C@H](C)c3cc(-c4ccccc4CNCC4CCN(CC5CCN(C(=O)CC(=O)N[C@H](C(=O)N6C[C@H](O)C[C@H]6C(=O)NCc6ccc(-c7scnc7C)cc6)C(C)(C)C)CC5)CC4)cs3)c2cc1OC`: the Activity in experiment [1] came out at 0%; in experiment [2], 19.6%; in experiment [3], 23%; in experiment [4], 0%.

On to `COc1cc2nc(C)nc(N[C@H](C)c3cc(N)cc(C(F)(F)F)c3)c2cc1OCCCCCCC(=O)N[C@H](C(=O)N1C[C@H](O)C[C@H]1C(=O)NCc1ccc(-c2scnc2C)cc1)C(C)(C)C`, for which the Activity in experiment [1] worked out at 0%; in experiment [2] it was 3.4%; in experiment [3], 27%; in experiment [4], 0%.

As to `CNCc1ccccc1-c1csc([C@@H](C)Nc2nc(C)nc3cc(OC)c(C4=CCN(C(=O)CCCCC(=O)N[C@H](C(=O)N5C[C@H](O)C[C@H]5C(=O)NCc5ccc(-c6scnc6C)cc5)C(C)(C)C)CC4)cc23)c1`, the Activity in experiment [1] was 16.6%; in experiment [2], 30.2%; in experiment [3], 0%; in experiment [4], 28.3%.

Take `COc1cc2nc(C)nc(N[C@H](C)c3cc(-c4ccccc4CNCCCN4CCC(C(=O)N[C@H](C(=O)N5C[C@H](O)C[C@H]5C(=O)NCc5ccc(-c6scnc6C)cc5)C(C)(C)C)CC4)cs3)c2cc1OC`: the Activity was determined as 0% in experiment [1], 49.8% in experiment [2], 29.1% in experiment [3] and 0% in experiment [4].

Regarding `COc1cc2nc(C)nc(N[C@H](C)c3cc(-c4ccccc4CNCCCCCC(=O)N[C@H](C(=O)N4C[C@H](O)C[C@H]4C(=O)NCc4ccc(-c5scnc5C)cc4)C(C)(C)C)cs3)c2cc1OC`, the Activity in experiment [1] was 0%; in experiment [2], 11%; in experiment [3], 13.2%; in experiment [4], 0%.

For `CNCc1ccccc1-c1csc([C@@H](C)Nc2nc(C)nc3cc(OC)c(C4=CCN(C(=O)CCC(=O)N[C@H](C(=O)N5C[C@H](O)C[C@H]5C(=O)NCc5ccc(-c6scnc6C)cc5)C(C)(C)C)CC4)cc23)c1`, the Activity worked out at 18.9% in experiment [1], 0% in experiment [2], 5.6% in experiment [3] and 6.7% in experiment [4].

As for `COc1cc2nc(C)nc(N[C@H](C)c3cc(-c4ccccc4CNCCCCCCCCC(=O)N[C@H](C(=O)N4C[C@H](O)C[C@H]4C(=O)NCc4ccc(-c5scnc5C)cc4)C(C)(C)C)cs3)c2cc1OC`, the Activity in experiment [1] turned out to be 0%; in experiment [2], 24.4%; in experiment [3], 0%; in experiment [4], 31.6%.

Turning to `COc1cc2nc(C)nc(N[C@H](C)c3cc(-c4ccccc4CNCCCCCCCC(=O)N[C@H](C(=O)N4C[C@H](O)C[C@H]4C(=O)NCc4ccc(-c5scnc5C)cc4)C(C)(C)C)cs3)c2cc1OC`, the Activity is 27.4% in experiment [1], 12.7% in experiment [2], 0% in experiment [3] and 58.9% in experiment [4].

`COc1cc2nc(C)nc(N[C@H](C)c3cc(N)cc(C(F)(F)F)c3)c2cc1OCCCCCCCCC(=O)N[C@H](C(=O)N1C[C@H](O)C[C@H]1C(=O)NCc1ccc(-c2scnc2C)cc1)C(C)(C)C`: the Activity in experiment [1] was found to be 0%; in experiment [2] it was 21.5%; in experiment [3], 28.2%; in experiment [4], 0%.

With `COc1cc2nc(C)nc(N[C@H](C)c3cc(-c4ccccc4CNCCCCCCCCNc4ccc5c(c4)C(=O)N(C4CCC(=O)NC4=O)C5=O)cs3)c2cc1OC` (some centres not stated), the Activity was determined as 35.6% in experiment [5], 0% in experiment [6], 46.7% in experiment [7] and 1.3% in experiment [8].

Regarding `COc1cc2nc(C)nc(N[C@H](C)c3cc(N)cc(C(F)(F)F)c3)c2cc1OCCCCCCCCCC(=O)N[C@H](C(=O)N1C[C@H](O)C[C@H]1C(=O)NCc1ccc(-c2scnc2C)cc1)C(C)(C)C`, the Activity in experiment [1] came to 0%; in experiment [2], 0%; in experiment [3], 48.3%; in experiment [4] it was 0%.

Consider `COc1cc2nc(C)nc(N[C@H](C)c3cc(-c4ccccc4CNCCCCCCNc4ccc5c(c4)C(=O)N(C4CCC(=O)NC4=O)C5=O)cs3)c2cc1OC` (some centres not stated), for which the Activity was 0% in experiment [5], 0% in experiment [6], 37.7% in experiment [7] and 0% in experiment [8].

For the compound `COc1cc2nc(C)nc(N[C@H](C)c3cc(-c4ccccc4CNCCC4CCN(C(=O)CC(=O)N[C@H](C(=O)N5C[C@H](O)C[C@H]5C(=O)NCc5ccc(-c6scnc6C)cc5)C(C)(C)C)CC4)cs3)c2cc1OC`, the Activity in experiment [1], in experiment [2], in experiment [3] and in experiment [4] was 0% in each case.

With `COc1cc2nc(C)nc(C[C@H](C)c3cc(-c4ccccc4CNCCCCCCCCCNc4ccc5c(c4)C(=O)N(C4CCC(=O)NC4=O)C5=O)cs3)c2cc1OC` (some centres not stated), the Activity was determined as 0% in experiment [5], 0% in experiment [6], 89.1% in experiment [7] and 10.3% in experiment [8].

Consider `COc1cc2nc(C)nc(N[C@H](C)c3cc(N)cc(C(F)(F)F)c3)c2cc1OCCCCCCCC(=O)N[C@H](C(=O)N1C[C@H](O)C[C@H]1C(=O)NCc1ccc(-c2scnc2C)cc1)C(C)(C)C`, for which the Activity in experiment [1] was found to be 0%; in experiment [2], 0%; in experiment [3] it was 28.8%; in experiment [4], 0%.

Regarding `COc1cc2nc(C)nc(N[C@H](C)c3cc(-c4ccccc4CNCCCCCCCCCC(=O)N[C@H](C(=O)N4C[C@H](O)C[C@H]4C(=O)NCc4ccc(-c5scnc5C)cc4)C(C)(C)C)cs3)c2cc1OC`, the Activity in experiment [1] amounted to 0%; in experiment [2], 5.8%; in experiment [3] it was 0%; in experiment [4], 25.3%.

`CNCc1ccccc1-c1csc([C@@H](C)Nc2nc(C)nc3cc(OC)c(OCCCCCCCCC(=O)N[C@H](C(=O)N4C[C@H](O)C[C@H]4C(=O)NCc4ccc(-c5scnc5C)cc4)C(C)(C)C)cc23)c1`: the Activity was determined as 34.7% in experiment [1], 0% in experiment [2] and 0% in experiment [3].

As for `COc1cc2nc(C)nc(N[C@H](C)c3cc(N)cc(C(F)(F)F)c3)c2cc1OCCCCCC(=O)N[C@H](C(=O)N1C[C@H](O)C[C@H]1C(=O)NCc1ccc(-c2scnc2C)cc1)C(C)(C)C`, the Activity in experiment [1], in experiment [2], in experiment [3] and in experiment [4] was 0% throughout.

On to `CNCc1ccccc1-c1csc([C@@H](C)Nc2nc(C)nc3cc(OC)c(OCCCCCC(=O)N[C@H](C(=O)N4C[C@H](O)C[C@H]4C(=O)NCc4ccc(-c5scnc5C)cc4)C(C)(C)C)cc23)c1`, for which the Activity came to 22.5% in experiment [1], 0% in experiment [2], 0% in experiment [3] and 0% in experiment [4].

Source of the values: ChEMBL document CHEMBL5528047, “A Potent SOS1 PROTAC Degrader with Synergistic Efficacy in Combination with KRASG12C Inhibitor” (J Med Chem, 2024).
